Assay results taken from publication PMC3893073, “Structural and Functional Analyses of a Sterol Carrier Protein in Spodoptera litura” (PLoS ONE, 2014).
Entries after “also recorded” stand apart in the source; their conditions may differ. Read-outs that look alike come from different tables or passages of the source.

Experiments:
[1] = biological target: SlSCPx-2 (Spodoptera litura, UniProt D1GJ60); assay: 1,8-ANS fluorescence displacement (competitive binding) assay, wild type rSlSCPx-2; settings: for RBAchol / RBApal: IC50 of wild type for the same ligand (=100%)
Description: Binding of the fluorescent probe 1, 8-ANS to sterol carrier protein (SlSCPx-2) is measured by relative increase in fluorescent intensity. Steady-state fluorescence spectra were measured on a Cary Eclipse fluorescence spectrophotometer (Varian, Mulgrave, Australia) using a 1-cm path length cuvette. The binding was monitored by measuring the fluorescence signal between 400 and 600 nm following excitation at 350 nm. Slit widths were set to 5 and 10 nm for the excitation and emission monochromators, respectively. […] All measurements were performed at room temperature and the samples were equilibrated for 5 min prior to measurement. At each of the given concentrations, at least three replicates were performed.
(§1) After the incubation, each potential ligand at a serial of concentration (0–100 µM) was added into the 1, 8-ANS-protein mixture for another 2.5 min and the fluorescence intensity of the 1,8-ANS-protein complex was measured as previously described. The control was the reaction of ANS probe and a series of concentration (0–100 µM) of ligands without the protein. To calculate binding activity of the ligands and the protein, the fluorescence intensity of the controls were subtracted from the total fluorescence intensity of the 1, 8-ANS-protein complex in the presence of ligands tested. Each ligand replacement assay was repeated for three times.

[2] = tested on: S. litura larvae; assay: Diet bioassay for inhibition of growth of S. litura larvae; type: in vivo, Spodoptera litura; settings: for inhibitory effect on the growth of S. litura larvae: newly hatched larvae, artificial diet with 3, 12 and 48 µg/g diet; for body weight of the treated larvae: 13 days post egg hatching, increasing concentrations 3, 12, 48 µg/g diet, compared to the control
Description: Newly hatched S. litura larvae (30 larvae per treatment) were reared in artificial diet in presence of each chemical at different concentrations of 3, 12 and 48 µg/g diet. Control larvae were fed in the diet with diluted acetone (solvent for the chemical). Fresh diet was provided every other day. Larvae development was monitored until pupation. Larvae were weighted at 13 days post egg hatching when most of the larvae were at 5th instar stage.

[3] = tested on: A. aegypti; parameters: method as in PMID 15627652; settings: cited from earlier work
[4] = tested on: H. armigera neonates; settings: cited from earlier work
[5] = biological target: SlSCPx-2 T128A (Spodoptera litura, UniProt D1GJ60, T518A); assay: biochemical; type: binding
Description: as §1, with “Binding of the fluorescent probe 1, 8-ANS to SlSCPx-2 can be competed with physiological ligands. SlSCPx-2 at 15 µM was incubated with 1, 8-ANS at 15 µM in the reaction buffer (pH 7.0) at room temperature for 2.5 min. After” for “After”
(§2) Various mutations in His-tagged SlSCPx-2 were constructed by using the Stratagene QuickChange Site-Directed Mutagenesis Kit (TAKARA, Dalian, China). Recombined plasmid containing SlSCPx-2 fused with the His-Tag sequence in a pPROEXTM HTa vector was used as a template. Two complementary primer pairs containing the desired mutations were used to construct each gene mutant. All mutant sequences were confirmed by DNA sequencing. The binding affinity of the mutants with the various ligands was examined using the fluorescence displacement assay as described above.

[6] = biological target: SlSCPx-2 F89W (Spodoptera litura, UniProt D1GJ60, F479W); assay: biochemical; type: binding
Description: as §1, with “Binding of the fluorescent probe 1, 8-ANS to SlSCPx-2 can be competed with physiological ligands. SlSCPx-2 at 15 µM was incubated with 1, 8-ANS at 15 µM in the reaction buffer (pH 7.0) at room temperature for 2.5 min. After” for “After”
as §2

[7] = biological target: SlSCPx-2 F53W (Spodoptera litura, UniProt D1GJ60, F443W); assay: biochemical; type: binding
Description: (§3) Binding of the fluorescent probe 1, 8-ANS to SlSCPx-2 can be competed with physiological ligands. SlSCPx-2 at 15 µM was incubated with 1, 8-ANS at 15 µM in the reaction buffer (pH 7.0) at room temperature for 2.5 min. […] […] To calculate binding activity of the ligands and the protein, the fluorescence intensity of the controls were subtracted from the total fluorescence intensity of the 1, 8-ANS-protein complex in the presence of ligands tested. Each ligand replacement assay was repeated for three times.
as §2

[8] = biological target: SlSCPx-2 Q131A (Spodoptera litura, UniProt D1GJ60, Q521A); assay: biochemical; type: binding
Description: as §3, §2

[9] = biological target: SlSCPx-2 F53A (Spodoptera litura, UniProt D1GJ60, F443A); assay: biochemical; type: binding
Description: as §3, §2

[10] = biological target: SlSCPx-2 F110W (Spodoptera litura, UniProt D1GJ60, F500W); assay: biochemical; type: binding
Description: as §3, §2

[11] = biological target: SlSCPx-2 W66E (Spodoptera litura, UniProt D1GJ60, W456E); assay: biochemical; type: binding
Description: as §3, §2

[12] = biological target: SlSCPx-2 I115M (Spodoptera litura, UniProt D1GJ60, I505M); assay: biochemical; type: binding
Description: as §3, §2

[13] = biological target: SlSCPx-2 F89A (Spodoptera litura, UniProt D1GJ60, F479A); assay: biochemical; type: binding
Description: as §3, §2

[14] = biological target: SlSCPx-2 F110A (Spodoptera litura, UniProt D1GJ60, F500A); assay: biochemical; type: binding
Description: as §1, with “Binding of the fluorescent probe 1, 8-ANS to SlSCPx-2 can be competed with physiological ligands. SlSCPx-2 at 15 µM was incubated with 1, 8-ANS at 15 µM in the reaction buffer (pH 7.0) at room temperature for 2.5 min. After” for “After”
as §2

[15] = wild type, displacement of 15 µM 1,8-ANS from 15 µM SlSCPx-2, pH 7.0, read-out: IC50
[16] = IC50 of cholesterol (=100%) divided by IC50 of each chemical

With `C=CCc1cccc(/C=N/NC(=O)COc2ccccc2C)c1O` [AG-205/07775053] the “RBA (relative binding affinity)” value [1] was 0.6%, the IC50 [1, 15] was 8630 ± 393 µM and the “inhibitory effect on the growth of S. litura larvae” value (from here on “inhibitory effect on the growth”) [2] was “inhibited the growth; also recorded: high inhibitory effect; also recorded: had inhibitory effect”.

In the case of `CCCCCCOC(=O)c1ccc(NC(=O)CCC)cc1` [AG-205/36813059], the “RBA (relative binding affinity)” value [1] is reported as 210%, the IC50 [1, 15] is reported as 23.9 ± 1.38 µM and the “inhibitory effect on the growth” value [2] is reported as “inhibited the growth; also recorded: a certain degree of biological activity; also recorded: had inhibitory effect”.

In the case of `Cc1cc(OCCCCc2c(C)n[nH]c2C)ccc1Cl` [AG-664/14117324], the “RBA (relative binding affinity)” value [1] is reported as 1943%, the IC50 [1, 15] is reported as 2.58 ± 0.2 µM and the “body weight of the treated larvae” value [2] is reported as “decreased, significantly”. For the same molecule, the “inhibitory effect on the growth” value [2] was “inhibited the growth; also recorded: had inhibitory effect”.

For `CCc1ccc(C(=O)/C=C/Nc2ccc(NC(C)=O)cc2)cc1` [AH-487/41731687], the “RBA (relative binding affinity)” value [1] was 1166%, the IC50 [1, 15] was 4.3 ± 0.63 µM and the “body weight of the treated larvae” value [2] was “decreased, significantly”. For the same molecule, the “inhibitory effect on the growth” value [2] was “inhibited the growth; also recorded: had inhibitory effect”.

For `CC(=O)Nc1ccc(Nc2nc(-c3ccc(Cl)c(Cl)c3)cs2)cc1` [AeSCPI-1, reference compound], the “time to kill the larvae post the treatment” value ([3]; A. aegypti larvae) is given as ≤ 3 days, the “RBA (relative binding affinity)” value [1] is given as 31% and the IC50 [1, 15] is given as 161 ± 5.03 µM. The “lethality to H. armigera neonates” value [4] was “lethal”.

In the case of `COc1cccc(-n2sc3c(c2=S)-c2cc(Cl)ccc2NC3(C)C)c1` [AeSCPI-2, reference compound], the “mortality in A. aegypti” value [3] is listed as “caused death at larva-to-pupa transition period”, the “RBA (relative binding affinity)” value [1] is listed as 91% and the IC50 [1, 15] is listed as 55 ± 0.66 µM.

In the case of `CCCCC/C=C\C/C=C\C/C=C\C/C=C\CCCC(=O)O` [Arachidonate, arachidonic acid], the IC50 [1] is reported as 18.1 ± 0.83 µM and the “RBA (relative binding affinity)” value [1, 16] is reported as 277%.

Molecule `CC(C)CCC[C@@H](C)[C@H]1CC[C@H]2[C@@H]3CC=C4C[C@@H](O)CC[C@]4(C)[C@H]3CC[C@]12C` [Cholesterol, reference compound] has an IC50 [5] of 20.8 ± 1.32 µM, an IC50 [6] of 5.58 ± 1.23 µM and an IC50 [7] of 4669 ± 23.2 µM. It also gave an IC50 [8] of 2690 ± 34.2 µM, an IC50 [9] of 7300 ± 280 µM and an IC50 [10] of 231 ± 2.36 µM. The IC50 [11] was 974 ± 10.7 µM, the IC50 [12] was 34.3 ± 1.53 µM and the IC50 [13] was 1743 ± 1.3 µM. The “RBAchol / RBApal” value ([1]; wild type) was 100% and the IC50 [1, 15] was 50.1 ± 0.8 µM.

With `CC(C)[C@@H](C)/C=C/[C@@H](C)[C@H]1CC[C@H]2C3=CC=C4C[C@@H](O)CC[C@]4(C)[C@H]3CC[C@]12C` [Ergosterol] the IC50 [1] was 167.6 ± 0.34 µM and the “RBA (relative binding affinity)” value [1] was 30%.

With `CCCCC/C=C\C/C=C\CCCCCCCC(=O)O` [Linoleic acid] the “RBA (relative binding affinity)” value [1] was 35% and the IC50 [1, 15] was 143 ± 0.99 µM.

For `CCCCCCCC(=O)O` [Octanoate, reference compound], the “RBA (relative binding affinity)” value [1, 16] was 23% and the IC50 [1, 15] was 217.9 ± 1.53 µM.

For `CCCCCCCC/C=C\CCCCCCCC(=O)O` [Oleic acid], the IC50 [1] was 24.4 ± 1.14 µM and the “RBA (relative binding affinity)” value [1] was 206%.

For `CCCCCCCCCCCCCCCC(=O)O` [Palmitic acid], the IC50 [5] was 32.8 ± 1.52 µM, the IC50 [6] was 77.5 ± 1.51 µM and the IC50 [14] was 41.7 ± 1.62 µM. For the same molecule, the IC50 [7] was 5777 ± 28 µM, the IC50 [8] was 354.8 ± 2.55 µM and the IC50 [9] was 71.7 ± 0.84 µM. It also gave an IC50 [10] of 503.3 ± 2.7 µM, an IC50 [11] of 67.3 ± 3.43 µM and an IC50 [12] of 6617 ± 38.2 µM. For the same molecule, the “RBA (relative binding affinity)” value [1] was 85%, the “RBAchol / RBApal” value ([1]; wild type) was 100% and the IC50 [1, 15] was 59.1 ± 1.29 µM.

In the case of `CCCCCCCCCCCCCCCCCC(=O)O` [Stearic acid], the “RBA (relative binding affinity)” value [1] is reported as 126% and the IC50 [1, 15] is reported as 39.8 ± 1.17 µM.

For `CC[C@H](/C=C/[C@@H](C)[C@H]1CC[C@H]2[C@@H]3CC=C4C[C@@H](O)CC[C@]4(C)[C@H]3CC[C@]12C)C(C)C` [Stigmasterol], the IC50 [1] was 190 ± 2.29 µM and the “RBA (relative binding affinity)” value [1] was 26%.
